Measurements published in patent US9573913B2, “Cathepsin cysteine protease inhibitors” (Merck Sharp & Dohme Corp., priority 2013, dated 2017).

Columns and labels:
human cathepsin K = human cathepsin K (UniProt P43236); assay: Cathepsin K Assay (hrbCat K); type: biochemical; details: Z-Leu-Arg-AMC substrate, pH 5.5, 15 min preincubation; read-out: hrbCat K (IP (nM))
Outline: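 Human cathepsin K (0.4 nM) was preincubated 15 min at room temperature with compound in 50 mM MES pH 5.5, 2.5 mM EDTA, 2.5 mM DTT and 10% DMSO. Inhibition was fitted to a dose-response model.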

human cathepsin F = molecular target: T1, human cathepsin F (Homo sapiens, UniProt Q9UBX1); assay: Cathepsin F assay (hCat F); type: biochemical; details: Z-Phe-Arg-AMC substrate, pH 5.5, 15 min preincubation; read-out: hCat F (IP (nM))
T1 sequence (Q9UBX1 271-484): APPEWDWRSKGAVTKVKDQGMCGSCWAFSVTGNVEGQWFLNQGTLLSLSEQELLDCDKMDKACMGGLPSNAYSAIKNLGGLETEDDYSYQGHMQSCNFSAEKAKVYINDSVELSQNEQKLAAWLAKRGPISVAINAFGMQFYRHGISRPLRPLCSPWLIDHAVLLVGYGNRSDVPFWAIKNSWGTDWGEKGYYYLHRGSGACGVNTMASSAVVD
Outline: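 AMC release from Z-Phe-Arg-AMC, added at 8 μM, was monitored fluorometrically (360/460 nm) for 20 min after 10 nM enzyme and compound had been preincubated 15 min at room temperature. Buffer: MES 50 mM pH 5.5, EDTA and DTT 2.5 mM each, 10% DMSO. Compound DMSO dilutions spanned 500–0.025 μM (3-fold). Dose-response fitting gave % inhibition.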

| IC50 (human cathepsin K) [nM] | IC50 (human cathepsin F) [nM] | SMILES |
| --- | --- | --- |
| 6600 | ≥ 10000 | Cc1nc([C@H]2CCCC[C@@H]2C(=O)NCC#N)c(-c2ccc(C(=O)N3CCOCC3)cc2)s1 [Example 248, (1S,2S)-N-(cyanomethyl)-2-(2-methyl-5-(4-(morpholine-4-carbonyl)phenyl)thiazol-4-yl)cyclohexanecarboxamide] |
| 1.8 | 4860 | N#CC1(NC(=O)[C@@H]2C[C@@H](F)CC[C@H]2c2nc(C(F)F)sc2-c2ccc(N3CCS(=O)(=O)CC3)cc2)CC1 [Example 2219, (1R,2R,5S)-N-(1-cyanocyclopropyl)-2-(2-(difluoromethyl)-5-(4-(1,1-dioxidothiomorpho-lino)phenyl)thiazol-4-yl)-5-fluorocyclohexane-carboxamide] |
